Experimental data published in publication PMC12705620 (Frontiers in Pharmacology, 2025).
Bridge positions count the residues as written; N and C are the ends. Square brackets hold non-standard residues; d marks the D form. Peptide text beside a SMILES is read from it. I, II: the chains in the order shown. Dap = NC[C@H](N)C(=O)O; Ahx = NCCCCCC(=O)O

Experiments:
[1] = tested on: Enterococcus faecium LUH15122; format: cell-based; details: LUH15122, 18 h
Method: (§1) Bactericidal activity was assessed as previously described ([Breij et al., 2018]). Briefly, mid-logarithmic phase bacterial cultures were diluted in RPMI to 1 × 10^7 CFU/mL. For fungicidal assays, fungal cultures were prepared in RPMI supplemented with 1% glucose (Merck) and diluted to 2–5 × 10^5 CFU/mL. For each condition, 10 µL of the suspension was added to 90 µL of peptide-containing RPMI or RPMI supplemented with 50% (v/v) pooled human plasma (hereafter referred to as 50% plasma; final bacterial concentration 1 × 10^6 CFU/mL, final fungal concentration 2–5 × 10^4 CFU/mL. Human plasma from four healthy volunteers (Sanquin, Netherlands) was pooled, and stored at −20 °C until use. Peptides were tested similarly for fungicidal activity, after 18 h of incubation at 37 °C with shaking (120 rpm) under humidified conditions, bacterial and fungal survival was determined by plating 10 µL aliquots onto BA plates. Assays were performed in duplicate in round-bottom polypropylene microtiter plates (Costar) and repeated independently three times. Untreated controls included bacteria exposed to RPMI alone or RPMI with 50% plasma. Bactericidal and fungicidal activity was expressed as the lethal concentration 99.9% (LC99.9), defined as the lowest peptide concentration causing ≥99.9% reduction in numbers of CFU compared to the initial inoculum.

[2] = tested on: Staphylococcus aureus JAR060131; format: cell-based; details: JAR060131, 18 h
Method: as §1

[3] = tested on: HaCaT human keratinocytes; experiment: Cytotoxicity (WST-1 and LDH); format: cell-based
Method: (§2) Cells (5 × 10^5 cells/mL) were seeded in 96-well plates (100 μL/well; Thermo Scientific) and allowed to adhere for 24 h. After adhesion, monolayers were exposed to two-fold serial dilutions of the tetrameric and reference peptides (final concentrations: 60–0.05 µM) in fresh DMEM containing 2% (v/v) FBS, and incubated for 24 h at 37 °C in a humidified 5% CO2 atmosphere. Cell viability was assessed using the water-soluble tetrazolium salt (WST-1; Roche) assay, and membrane integrity was measured using the lactate dehydrogenase (LDH) release assay (Abcam), following manufacturer instructions. Absorbance was measured using the Synergy H1 microplate reader (Biotek). Results are expressed as percentages relative to untreated control (for WST-1) and positive lysis control (for LDH) and all experiments were performed in triplicate.

[4] = tested on: human skin fibroblast cells (BJ); experiment: Cytotoxicity (WST-1 and LDH); format: cell-based
Method: as §2

[5] = tested on: TNF-α production by dTHP-1 macrophages stimulated with LPS (E. coli O111:B4); experiment: Endotoxin neutralization, LPS-stimulated macrophages; format: cell-based, human; details: LPS 5 ng/mL with 1 or 2 µM peptide, 4 h, serum-free RPMI, ELISA, versus NT
Method: (§3) The endotoxin-neutralizing capacity of the peptides was assessed by measuring tumor necrosis factor-alpha (TNF-α) production by dTHP-1 macrophages. dTHP-1 macrophages were stimulated with either lipopolysaccharide (LPS; E. coli O111:B4; 5 ng/mL, Sigma-Aldrich) or UV-inactivated S. aureus JAR060131 (MOI 2; as described in Section 5.2), in the presence or absence of one or 2 µM peptides. Cells were cultured in serum-free RPMI and incubated for 4 h at 37 °C with 5% CO2. Positive controls consisted of cells stimulated with LPS or UV-S. aureus without peptide treatment (no treatment, NT), and unstimulated cells served as negative controls. After stimulation, cell supernatants were collected, and cytokine levels of TNF-α were quantified using human ELISA kits (R&D Systems, USA) according to the manufacturer’s instructions. Each condition was tested in triplicate.

[6] = tested on: TNF-α production by unstimulated dTHP-1 macrophages; experiment: TNFα induction by peptides alone in macrophages; format: cell-based, human; details: 2 µM peptide, 4 h, no endotoxin stimulation, versus unstimulated cells
Method: as §3

[7] = tested on: HaCaT keratinocytes; experiment: In vitro scratch wound assay; format: cell-based, human; details: 1 µM peptide (TGF-β 20 ng/mL); for Percentage of wound closure: 60 h (legend: 64 h); for Percentage of wound closure / Rate of cell migration: versus no treatment
Method: Cell migration following injury was assessed using an in vitro scratch assay with the IncuCyte wound maker tool (Sartorius). HaCaT keratinocytes were seeded in 96-well ImageLock plates (Sartorius) at 3 × 10^5 cells/well (100 µL) in DMEM supplemented with 10% FBS and incubated at 37 °C, 5% CO2 for 48 h, with medium change at 24 h, until confluence. Uniform scratches were introduced using the wound maker tool according to the manufacturer’s instructions. After wounding, wells were washed twice with 100 µL PBS to remove cell debris. Cells were then treated with 1 µM peptides in serum-free DMEM, to focus specifically on cell migration from the wound edges. The absence of serum minimizes interference with peptide activity. Transforming growth factor-beta (TGF-β; human; 20 ng/mL; Sigma-Aldrich) and 5% dimethyl sulfoxide (DMSO; Sigma-Aldrich) were used as positive and negative controls, respectively. Additional controls included serum-free DMEM (no-treatment control) and 50% (v/v) acetonitrile in Milli-Q water as solvent control. Wound closure was monitored using the IncuCyte S3 live-cell imaging system (Sartorius) with bright-field microscopy. Images were captured every 6 h for up to 60 h. Image analysis was performed using ImageJ software (version 1.53t, NIH, USA) with the “Wound Healing” plugin, as described by Suarez Arnedo et al. ([Suarez-Arnedo et al., 2020]). Quantitative parameters included wound width (µm), percent wound closure, and migration rate (µm/hour).

[8] = tested on: primary human venous endothelial cells (HUVECs); experiment: In vitro angiogenesis (tube formation) assay; format: cell-based; details: 4 h; for Number of tubular networks formed: 1 µM peptide, Matrigel, versus untreated control
Method: Primary human venous endothelial cells (HUVECs; CSC 2V0) were used to evaluate the in vitro angiogenic potential of peptides using a tube formation assay, adapted from Arnaoutova and Kleinman ([Arnaoutova and Kleinman, 2010]). Cells were cultured in low-serum endothelial cell growth medium 2 (2% v/v; Promo Cell). Briefly, 96-well plates were coated with 50 µL/well of phenol red-free, growth factor-reduced basement membrane matrix (Matrigel; Corning), and incubated at 37 °C for 1 h to allow gelation. […] Then, 100 µL of cell suspension (1.5 × 10^4 cells/well) was added to the Matrigel-coated wells in triplicate and incubated at 37 °C, 5% CO2 for 8 h. Tube formation was monitored using the IncuCyte S3 live-cell imaging system (Sartorius) with bright-field microscopy. Images were captured hourly, and the 4-h time point (corresponding to optimal tube formation) was used for analysis. The number of capillary-like structures was quantified using the “Angiogenesis Analyzer” plugin in ImageJ ([Carpentier et al., 2020]). Each peptide condition was tested in triplicate and repeated three times using different Matrigel batches to account for batch-to-batch variability.

Compound | LC99.9 [1] | LC99.9 [2] | Cytotoxicity threshold (tolerance), WST-1 and LDH [3] | Cytotoxicity, LDH leakage [3] | Cytotoxicity, Metabolic activity [3] | Cytotoxicity threshold (tolerance), WST-1 and LDH [4] | Cytotoxicity, LDH leakage [4] | Cytotoxicity, Metabolic activity [4] | Reduction of LPS-induced TNFα levels [5] | TNFα induction by peptide alone [6] | Percentage of wound closure [7] | Rate of cell migration [7] | Number of tubular networks formed [8] | Concentration at which tube formation peaked ([8]; concentration series 0.5–3 µM) | Tube formation at 3 µM ([8]; concentration series 0.5–3 µM) | Wound width reduction ([7]; serum-free DMEM, versus untreated control)
N=C(N)NCCC[C@H](NC(=O)[C@H](Cc1c[nH]c2ccccc12)NC(=O)[C@H](CCC(N)=O)NC(=O)[C@H](Cc1c[nH]c2ccccc12)NC(=O)[C@H](CCCNC(=N)N)NC(=O)[C@@H](N)CCCNC(=N)N)C(=O)NC[C@H](NC(=O)[C@H](CCCNC(=N)N)NC(=O)[C@H](Cc1c[nH]c2ccccc12)NC(=O)[C@H](CCC(N)=O)NC(=O)[C@H](Cc1c[nH]c2ccccc12)NC(=O)[C@H](CCCNC(=N)N)NC(=O)[C@@H](N)CCCNC(=N)N)C(=O)NCCCCCC(=O)N[C@@H](CSSC[C@H](NC(=O)CCCCCNC(=O)[C@H](CNC(=O)[C@H](CCCNC(=N)N)NC(=O)[C@H](Cc1c[nH]c2ccccc12)NC(=O)[C@H](CCC(N)=O)NC(=O)[C@H](Cc1c[nH]c2ccccc12)NC(=O)[C@H](CCCNC(=N)N)NC(=O)[C@@H](N)CCCNC(=N)N)NC(=O)[C@H](CCCNC(=N)N)NC(=O)[C@H](Cc1c[nH]c2ccccc12)NC(=O)[C@H](CCC(N)=O)NC(=O)[C@H](Cc1c[nH]c2ccccc12)NC(=O)[C@H](CCCNC(=N)N)NC(=O)[C@@H](N)CCCNC(=N)N)C(N)=O)C(N)=O [LBT-1] (I: H-RRWQWR[Dap][Ahx]C-NH2 / II: H-RRWQWR[Dap][Ahx]C-NH2 / III: H-RRWQWR / IV: H-RRWQWR; amide I:7-III:C, II:7-IV:C; disulfide I:9-II:9; N-terminus and C-terminus assumed) | 0.94 µM | 0.47 µM | 15 µM | 15 µM | 15 µM | 7.5 to 15 µM | 7.5 µM | 15 µM | effectively neutralize | minimal but significant | significant wound closure | ns | significantly increasing the number of networks | 2 µM | declined | 
N=C(N)NCCC[C@H](NC(=O)[C@H](Cc1c[nH]c2ccccc12)NC(=O)[C@H](CCC(N)=O)NC(=O)[C@H](Cc1c[nH]c2ccccc12)NC(=O)[C@H](CCCNC(=N)N)NC(=O)[C@@H](N)CCCNC(=N)N)C(=O)NCCCC[C@H](NC(=O)[C@H](CCCNC(=N)N)NC(=O)[C@H](Cc1c[nH]c2ccccc12)NC(=O)[C@H](CCC(N)=O)NC(=O)[C@H](Cc1c[nH]c2ccccc12)NC(=O)[C@H](CCCNC(=N)N)NC(=O)[C@@H](N)CCCNC(=N)N)C(=O)NCCCCCC(=O)N[C@@H](CSSC[C@H](NC(=O)CCCCCNC(=O)[C@H](CCCCNC(=O)[C@H](CCCNC(=N)N)NC(=O)[C@H](Cc1c[nH]c2ccccc12)NC(=O)[C@H](CCC(N)=O)NC(=O)[C@H](Cc1c[nH]c2ccccc12)NC(=O)[C@H](CCCNC(=N)N)NC(=O)[C@@H](N)CCCNC(=N)N)NC(=O)[C@H](CCCNC(=N)N)NC(=O)[C@H](Cc1c[nH]c2ccccc12)NC(=O)[C@H](CCC(N)=O)NC(=O)[C@H](Cc1c[nH]c2ccccc12)NC(=O)[C@H](CCCNC(=N)N)NC(=O)[C@@H](N)CCCNC(=N)N)C(N)=O)C(N)=O [LBT] (I: H-RRWQWRK[Ahx]C-NH2 / II: H-RRWQWRK[Ahx]C-NH2 / III: H-RRWQWR / IV: H-RRWQWR; amide I:7-III:C, II:7-IV:C; disulfide I:9-II:9; N-terminus and C-terminus assumed) |  | 0.47 µM |  | 30 µM | 30 µM |  | 15 µM | 30 µM | effectively neutralize |  | significant wound closure | highest migration (p < 0.05) | enhanced tube formation |  |  | significantly reduced wound width
